Laboratory results published in PubChem BioAssay (NCI).
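Step 1: Grow cells in 96-well plates. Step 2: Expose to compound for 48 hours at 5 concentrations. Step 3: Interpolate endpoints linearly; if unreached, use highest concentration. TGI denotes the concentration required for complete inhibition of growth.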

Assays:
Experiment in all cases: NCI anticancer screen, dose series, 48 h
[1] = test system: NCI-H522 lung
[2] = test system: SF-268 CNS
[3] = test system: U251 CNS
[4] = test system: SW-620 colon
[5] = test system: ACHN renal
[6] = test system: COLO 205 colon
[7] = test system: NCI-H460 lung
[8] = test system: HL-60(TB) leukemia
[9] = test system: SNB-75 CNS
[10] = test system: IGROV1 ovarian
[11] = test system: SK-MEL-2 melanoma
[12] = test system: HCC-2998 colon
[13] = test system: KM12 colon
[14] = test system: TK-10 renal
[15] = test system: MALME-3M melanoma
[16] = test system: RXF 393 renal
[17] = test system: OVCAR-4 ovarian
[18] = test system: HT29 colon
[19] = test system: NCI-H226 lung
[20] = test system: KM20L2 colon

SMILES	TGI [1] [µM]	TGI [2] [µM]	TGI [3] [µM]	TGI [4] [µM]	TGI [5] [µM]	TGI [6] [µM]	TGI [7] [µM]	TGI [8] [µM]	TGI [9] [µM]	TGI [10] [µM]	TGI [11] [µM]	TGI [12] [µM]	TGI [13] [µM]	TGI [14] [µM]	TGI [15] [µM]	TGI [16] [µM]	TGI [17] [µM]	TGI [18] [µM]	TGI [19] [µM]	TGI [20] [µM]
O=C(NNc1ccnc2cc(Cl)ccc12)/C(=C\c1ccccc1Cl)NC(=O)c1ccccc1	39.9	85.1	34	> 100	> 100	81.8	> 100	67.8	> 100	> 100	46.1	> 100	51.6	> 100	> 100	> 100	> 100	> 100	67.6	
CC(O)C(N=Cc1nc(-c2ccccc2)oc1O)C(=O)O (stereo unspecified)	> 100	> 100	> 100	> 100	> 100	> 100	> 100		> 100	> 100	> 100	> 100	> 100	> 100	> 100	> 100	> 100	> 100	> 100	> 100
C=CCn1c(C23CC4CC(CC(C4)C2)C3)n[nH]c1=S	> 100	> 100	> 100	> 100	> 100	> 100	> 100	53.9	> 100	> 100	> 100	> 100	> 100	> 100	> 100	> 100	> 100	> 100	> 100	
CCCCCCCCOC(CO)CO		> 100	> 100	> 100	> 100	> 100	> 100	> 100		> 100		> 100		> 100	> 100		> 100	> 100	> 100	> 100
CCOP(=O)(OCC)C(N)Cc1ccc(OC)c(OC)c1 (stereo unspecified)	> 100	> 100	> 100	> 100	> 100	> 100	> 100	> 100	> 100	> 100	> 100	> 100	> 100	> 100	> 100	> 100	> 100	> 100	> 100	
Cc1ccc(/C(=C\C(=O)C(=O)NC23CC4CC(CC(C4)C2)C3)Sc2ccccc2)cc1	> 10	> 10	> 10	> 10	> 10	> 10	> 10	> 10	> 10	> 10	> 10	> 10	> 10	> 10	> 10	> 10	> 10	> 10	> 10	
Cn1cc(-c2cnc(-c3cn(C)c4ccccc34)cn2)c2ccccc21	15.4	> 87.5	40.2	> 38.6	> 94.6	15.6	> 100	8.66	25.7	> 50.5	> 71.2	41.7	14.8	> 100	> 100	24.7	> 100	36.6	> 86.1	
CSCCC(N)P(C)(=O)O (stereo unspecified)	> 100	> 100	> 100	> 100	> 100	> 100	> 100	> 100	> 100	> 100	> 100	> 100	> 100	> 100	> 100	> 100	> 100	> 100	> 100	
O=c1[nH]c(=O)n(C2OC(CO)C(O)C2O)c2ccsc12 (stereo unspecified)	> 100	> 100	> 100	> 100	> 100	> 100	> 100	> 100	> 100	> 100	> 100	> 100	> 100	> 100	> 100	> 100	> 100	> 100	> 100	
Fc1ccc(OCc2nc3cc(C(F)(F)F)ccc3nc2-c2ccccc2)cc1	> 100	> 100	> 100	> 100	> 100	> 100	> 100	> 89.1	> 100	> 100	> 100	> 100	> 100	> 100	> 100	> 100	> 100	64.9	> 100	
CC1(C)OC(C[C@]2(C#N)C[C@H](CCl)OC(C)(C)O2)C[C@@H](C[C@]2(C#N)C[C@H](CCl)OC(C)(C)O2)O1 (stereo partly specified)	> 100	> 100	> 100	> 100	> 100	> 100	> 100	> 100	> 100	> 100	> 100	> 100	> 100	> 100	> 100		> 100	> 100	> 100	> 100
O=C(c1ccccc1)c1ccc(OCCOc2ccc(Nc3ccccc3)cc2)cc1	53.3	> 100	57.1	> 100	84.3	> 100	> 100		33.4	> 100	> 100	> 100	> 100	84.3	71	67.3	54.8		> 100	> 100
O=C(CCCN1CCC2(CC1)NC(=O)c1ccccc1O2)c1ccc(F)cc1	> 100	> 100	> 100	> 100	> 100	> 100	> 100	> 100	> 100	> 100	> 100	> 100	> 100	> 100	> 100	> 100	> 100	> 100	> 100	
CO/N=C(/C(=O)N(C(=O)/C(=N/OC)c1csc(NC(c2ccccc2)(c2ccccc2)c2ccccc2)n1)n1cnn(CC(=O)OC(C)(C)C)c1=O)c1csc(NC(c2ccccc2)(c2ccccc2)c2ccccc2)n1	> 10	> 10	> 10	> 10	> 10	> 10	> 10	> 10	> 10	> 10	3.92	> 10	> 10	> 10	> 10	> 10	> 10	> 10	> 10	
CC(=O)Nc1sc([N+](=O)[O-])cc1S(=O)(=O)c1ccc(Cl)cc1	11	> 100	> 35.5	> 100	10.6	1.77	10.2	> 23.5	11.2	> 100	8.54	8.64	14.5	> 100	15.3	13.5	> 100	> 52.8	21.9	
O=C(O)C1=C(C(=O)O)N(c2ccncc2)C(c2ccco2)=CC1c1ccccc1[N+](=O)[O-] (stereo unspecified)	9.59	36.1	28	> 27.1	3.13	31.1	28.9	7.85	23.9	4.84	37.3	3.57	3.36	17.6	22.3	21.3	25.9	3.2	40.2	
CCCCCC(=O)Nc1nc[nH]c1C(N)=O	> 100	> 100	> 100	> 100	> 100	> 100	> 100	> 100	> 100	> 100	> 100	> 100	> 100	> 100	> 100	> 100	> 100	> 100	> 100	
Cc1nn(C(=O)c2ccc(Cl)cc2)c2c1C(c1cccc([N+](=O)[O-])c1)SC(N)=N2 (stereo unspecified)	> 10	> 10	> 10	> 10	> 10	> 10	> 10	> 10	> 10	> 10	> 10	> 10	> 10	> 10	> 10	> 10	> 10	> 10	> 10	
COc1cc(=O)n2c3ccccc3n(C)c2c1C#N	> 100	> 100	> 100	> 100	> 100	> 100	> 100	> 100	> 100	> 100	> 100	> 100	> 100	> 100	> 100	> 100	> 100	> 100	> 100	
